What was measured:
Format in all cases: toxicity, cell-based
[1] = tested on: U2OS; experiment: Incucyte cell viability with U2OS; conditions: human, 10 µM, compound concentration 10 uM
[2] = tested on: Fibroblast; experiment: Incucyte cell viability with human fibroblast; conditions: 10 µM, compound concentration 10 uM
[3] = tested on: HEK-293T; experiment: Incucyte cell viability with HEK293T; conditions: human, 10 µM, compound concentration 10 uM
[4] = 0 h, replicate number 1, timepoint 0 hours
[5] = 6 h, replicate number 1, timepoint 6 hours
[6] = 12 h, replicate number 1, timepoint 12 hours
[7] = 12 h, replicate number 2, timepoint 12 hours
[8] = 18 h, replicate number 1, timepoint 18 hours
[9] = 24 h, replicate number 1, timepoint 24 hours
[10] = 6 h, replicate number 2, timepoint 6 hours
[11] = 18 h, replicate number 2, timepoint 18 hours
[12] = 24 h, replicate number 2, timepoint 24 hours
[13] = 0 h, replicate number 2, timepoint 0 hours
Further: filed as whole numbers so only -1 and 0 and 1 occur.

| SMILES | Growth Rate [1, 4] | Growth Rate [1, 5] | Growth Rate [1, 6] | Growth Rate [1, 8] | Growth Rate [1, 9] | Growth Rate [2, 4] | Growth Rate [2, 5] | Growth Rate [2, 6] | Growth Rate [2, 8] | Growth Rate [2, 9] | Growth Rate [3, 4] | Growth Rate [3, 5] | Growth Rate [3, 10] | Growth Rate [3, 6] | Growth Rate [3, 8] | Growth Rate [3, 9] | Growth Rate [3, 12] | Growth Rate [3, 13] | Growth Rate [1, 11] | Growth Rate [1, 12] | also measured |
| --- | --- | --- | --- | --- | --- | --- | --- | --- | --- | --- | --- | --- | --- | --- | --- | --- | --- | --- | --- | --- | --- |
| CCCCC#Cc1nc(NC)c2ncn([C@@H]3O[C@H](CO)[C@@H](O)[C@H]3O)c2n1 | 0 | 0 | 1 | 1 | 1 | 0 | 1 | 1 | 1 | 1 | 0 | 0 | 1 | 0 | 0 | 0 | 1 |  |  |  | Growth Rate [1, 7]: 0; Growth Rate [3, 7]: 1; Growth Rate [3, 11]: 1 |
| COc1ccc2c(c1)O[C@@H](c1ccc(OC)c(OC)c1)C[C@H]2NC(=O)C1(c2ccc3c(c2)OC(F)(F)O3)CC1 [A-1596586] | 0 |  | 1 | 1 | 1 | 0 |  |  | 1 | 1 | 1 | 0 |  | 0 | 0 | 0 |  | 0 |  |  |  |
| CC(C)(C)c1ccc(C(=O)Nc2cn3cc(-n4ccnc4)ccc3n2)cc1.Cl.Cl | 1 | 1 | 1 | 1 | 1 | 0 |  | 1 | 1 | 1 |  | 0 |  | 0 | 0 | 0 |  | 1 |  |  | Growth Rate [1, 13]: 0 |
| C[C@H](NC(=O)Nc1cc2[nH]ncc2c(CO)n1)c1ccccn1 [ERKi-NC] | 0 | 0 | 0 | 0 | 0 |  | 0 | 0 | 1 | 1 | 0 |  |  |  | 1 | 1 |  | 1 | 1 | 1 | Growth Rate [1, 10]: 1; Growth Rate [1, 7]: 1; Growth Rate [2, 13]: 1; Growth Rate [2, 11]: 0 |
| C[C@@H](N)Cc1c[nH]cn1.Cl.Cl | 1 | 0 | 0 | 0 | 0 | 1 | 0 | 0 | 0 | 0 | 0 | 1 | 0 | 1 | 1 | 1 | 0 |  | 1 | 1 | Growth Rate [1, 7]: 1; Growth Rate [2, 13]: 0; Growth Rate [2, 12]: 1; Growth Rate [3, 7]: 0; Growth Rate [3, 11]: 0 |
| Cc1cn2cc(CC(=O)N3CCC4(CC3)CN(Cc3ccc(-n5nccn5)cc3Cl)C4)nc2s1 | 0 |  | 1 | 1 | 1 | 1 | 0 | 0 | 0 | 1 | 1 | 0 |  | 0 | 0 | 0 |  | 0 |  |  | Growth Rate [1, 10]: 0; Growth Rate [2, 12]: 0 |
| COc1cc(OC)c(NC(=O)c2ccc(Cc3cc4c(cc3C)C(C)(C)CCC4(C)C)o2)c(OC)c1 | 0 |  | 1 | 1 | 0 | 0 | 0 |  | 1 | 1 | 1 | 0 | 1 | 0 | 0 | 0 |  | 0 |  |  | Growth Rate [1, 10]: 1; Growth Rate [2, 7]: 1 |
| Cc1cc(OCC(=O)O)cc(C)c1Cc1ccc(O)c(C(C)C)c1 [SOBETIROME] |  |  | 1 | 0 | 1 | 0 | -1 |  | 1 | 0 | 0 | 0 |  | 0 | 0 | 0 | 1 |  | 1 |  | Growth Rate [1, 13]: 0; Growth Rate [1, 10]: 0; Growth Rate [2, 10]: 0; Growth Rate [2, 7]: 0; Growth Rate [2, 12]: 1; Growth Rate [3, 11]: 1 |
| CCN(Cc1ccc(Cl)cc1)c1ncc(C(=O)NCCCN2CCCC2=O)c(NC2CCCC2)n1 |  | 1 | 1 | 1 | 1 |  | 1 | 1 | 1 | 1 | 0 |  |  |  |  |  |  |  |  |  | Growth Rate [1, 13]: 0; Growth Rate [2, 13]: 0; Growth Rate [2, 10]: 0; Growth Rate [2, 7]: 0 |
| N#CC1(c2ccccn2)CCN(Cc2cc(C(=O)O)c(=O)n3ccccc23)CC1 [MSD-M1PAM] |  | 0 | 0 | 0 | 0 | 0 | 0 | 0 | 0 | 0 | 1 | 1 |  | 1 | 1 | 1 | 0 | 0 | 1 | 1 | Growth Rate [1, 13]: 1; Growth Rate [2, 11]: 1 |
| CCOC(=O)c1ncn2c1CN(C)C(=O)c1cc(F)ccc1-2 [FLUMAZENIL] | 1 | 0 | 0 | 0 | 0 | 0 |  |  | 1 | 1 | 0 | 1 | 0 | 1 | 1 | 1 | 0 |  | 1 | 1 | Growth Rate [2, 10]: 0; Growth Rate [2, 7]: 0; Growth Rate [2, 11]: 0; Growth Rate [3, 7]: 0; Growth Rate [3, 11]: 0 |
| NS(=O)(=O)c1cc(NC(=O)Cc2ccccc2)ccc1Oc1cccc(Cl)c1 [BAY-1797] |  | 0 | 1 | 0 | 0 | 0 |  |  |  | 1 | 0 | 0 | 1 | 0 | 0 | 0 |  |  | 1 | 1 | Growth Rate [1, 7]: 0; Growth Rate [2, 7]: 1; Growth Rate [2, 11]: 1; Growth Rate [3, 7]: 1 |
